Key:
[1] = test system: Human primary dermal fibroblast cells; assay: Human primary dermal fibroblast cell proliferation, SRB assay; format: cell-based; conditions: 1 ng/ml to 1 ug/ml, 72 hours, SRB assay OD 590 nm
Experimental: Human primary dermal fibroblast cells were treated with CG-Renuin (peptide of SEQ ID NO: 1) and CG-Noverin (peptide of SEQ ID NO: 2) at different concentrations (1 ng/ml to 1 ug/ml), and the cells were incubated for 72 hours in a cell incubator. Then, the cell proliferation change by the peptide treatment was analyzed through SRB assay (OD 590 nm).

HaCaT keratinocytes = assay: Melanosome transfer: phagocytosis assay with fluorescent bioparticles; format: cell-based; conditions: trypsin 1 μg/ml induction, peptide 1 μg/ml, 48 hours; trypsin treatment group considered 100%
Experimental: In order to observe melanosome transfer, phagocytosis assay was conducted using HaCaT keratinocytes. Bioparticles with a fluorescence substance attached thereto were used as a substance for phagocytosis. The cells were seeded in a 96-well tissue culture plate at 3×10^3 cells/well, incubated for 24 hours, and then incubated in a serum-free medium for 6 hours. Thereafter, for the induction of phagocytosis, the cells were treated with 1 μg/ml of trypsin, and then the cells were treated with 1 μg/ml of peptides for 48 hours. As a result, it was confirmed through a fluorescent microscope that the bioparticles were phagocytized into keratocytes. From the observation when the data with respect to a phagocytosis induction group, that is, a trypsin treatment group, were considered to be 100%, it was verified that phagocytosis was inhibited in the CG-Noverin treatment group and the CG-Renuin treatment group.

MMP2 [2] = biological target: T1, MMP2 (Homo sapiens, UniProt P08253); assay: rhMMP2 inhibition by gelatin zymography; format: biochemical; conditions: rhMMP2 mixed with peptide 0.1 ug/ml and 1 ug/ml, room temperature, 1 hour
T1 sequence (P08253 110-660): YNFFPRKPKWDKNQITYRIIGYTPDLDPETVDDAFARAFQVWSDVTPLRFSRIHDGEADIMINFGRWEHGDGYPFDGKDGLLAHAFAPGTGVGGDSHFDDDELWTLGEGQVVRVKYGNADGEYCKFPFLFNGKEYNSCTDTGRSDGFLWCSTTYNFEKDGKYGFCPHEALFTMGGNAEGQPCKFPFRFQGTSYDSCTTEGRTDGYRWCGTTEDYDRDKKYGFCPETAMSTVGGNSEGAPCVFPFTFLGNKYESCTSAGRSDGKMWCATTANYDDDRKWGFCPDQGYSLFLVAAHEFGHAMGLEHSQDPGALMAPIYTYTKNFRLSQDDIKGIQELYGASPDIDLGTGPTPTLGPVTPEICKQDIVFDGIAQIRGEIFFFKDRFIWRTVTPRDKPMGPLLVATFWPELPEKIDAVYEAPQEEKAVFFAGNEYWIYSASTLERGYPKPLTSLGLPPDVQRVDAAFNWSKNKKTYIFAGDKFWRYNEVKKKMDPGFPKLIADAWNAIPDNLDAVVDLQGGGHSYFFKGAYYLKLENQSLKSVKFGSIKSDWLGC
Experimental: (§1) After rhMMP2 was mixed with the peptides at different concentrations (0.1 ug/ml and 1 ug/ml), the incubation was conducted at room temperature for 1 hour. Then, in order to investigate the expression of rhMMP2 through gelatin zymography, protein electrophoresis (SDS-PAGE) was conducted using gelatin (2 mg/ml) as a substrate. After the electrophoresis, the gel was immersed in 2.5% Triton X-100 for 30 minutes, and then incubated in a buffer containing 50 mM Tris-HCl, 0.2 M NaCl, 5 mM CaCl2), and 1% Triton X-100 at 37 °C for 24 hours. After the incubation, the gel was stained with Coo-massie Brilliant Blue R250 (Sigma), and de-stained with a solution containing 5% methanol, 7.5% acetic acid, and distilled water. In addition, the bands formed by gelatin hydrolysis were observed.

NIH3T3 cells = assay: Western blotting of pERK and p38 in UVA-irradiated cells; format: cell-based; conditions: 1-10 ug/ml, 30 minutes, then UVA (8 J), 24 hours
Experimental: NIH3T3 cells ([…]) were seeded in a 6-well plate at a cell density of 2×10^5 cells/well, followed by incubation overnight, and then the cells were treated with CG-Renuin or CG-Noverin peptides at different concentrations (1-10 ug/ml), followed by incubation at 37 °C for 30 minutes. Then, the cells were irradiated with UVA (8 J), followed by incubation for 24 hours. The lysates were obtained by the treatment with the cell lysis buffer, followed by protein quantification. For the confirmation of the expression of cellular activating factors, western blotting was conducted using the anti-pERK (Santa Cruz Biotechnology, USA) and p38 (Santa Cruz Biotechnology, USA) antibodies.

MMP2 [3] = biological target: T1, MMP2; assay: Inhibition of MMP2-induced collagen degradation in human dermal fibroblast (HDF) cells, pro-collagen type I kit; format: cell-based; parameters: purchased SIGMA/USA; host or cells: added to human dermal fibroblast (HDF) cells; conditions: MMP2 20 ng/ml co-treatment, 6 hours, or after IGF-1 100 ng/ml, 4 hours, pro-collagen type I in supernatant
Experimental: Human dermal fibroblast (HDF) cells (3×10^4) were seeded in a 24-well plate. The next day, the cells were incubated in 5% serum medium for 42 hours, treated with MMP2 (20 ng/ml, SIGMA/USA) and CG-Noverin or CG-Renuin, respectively, and incubated for 6 hours. The supernatant obtained from centrifugation at 14,000×g for 10 minutes was analyzed using the pro-collagen type I kit (RnD system/USA).
Human dermal fibroblast (HDF) cells (3×10^4) were seeded in a 24-well plate, and then the next day, the medium was exchanged with a 5% serum medium. The cells were treated with IGF-1 (100 ng/ml, Sigma/USA), followed by incubation for 44 hours, and then the cells were treated with MMP2 (20 ng/ml) and CG-Noverin or CG-Renuin, respectively, followed by incubation for 4 hours. The supernatant obtained from centrifugation at 14,000×g for 10 minutes was analyzed using the pro-collagen type I kit.

MMP2 [4] = biological target: T2, MMP2 (Mus musculus, UniProt P33434); assay: MMP2 activity in TNF-α-induced fibroblast cells (NIH3T3), gelatin zymography; format: cell-based; conditions: NIH3T3, MMP2 induced by TNF-α; 10, 100, 1000 ng/ml, 24 hours
T2 construct: endogenous in cells; host or cells: NIH3T3
Experimental: as §1, with “Fibroblast cells (NIH3T3) were seeded in a 24-well plate at a cell density of 3×10^4 cells/well. The next day, the cells were incubated in serum-less medium for 24 hours, and the expression and activation of MMP2 were induced by TNF-α. The cells were treated” for “After rhMMP2 was mixed”, “CG-Renuin or CG-Noverin” for “the peptides”, “(10 ng/ml, 100 ng/ml, 1000 ng/ml), followed by incubation for 24 hours. The supernatant obtained from centrifugation at 14,000×g for 10 minutes was incubated,” for “(0.1 ug/ml”, “then,” for “1 ug/ml), the incubation was conducted at room temperature for 1 hour. Then,”, “MMP2” for “rhMMP2”

T2 sequence (P33434 110-662): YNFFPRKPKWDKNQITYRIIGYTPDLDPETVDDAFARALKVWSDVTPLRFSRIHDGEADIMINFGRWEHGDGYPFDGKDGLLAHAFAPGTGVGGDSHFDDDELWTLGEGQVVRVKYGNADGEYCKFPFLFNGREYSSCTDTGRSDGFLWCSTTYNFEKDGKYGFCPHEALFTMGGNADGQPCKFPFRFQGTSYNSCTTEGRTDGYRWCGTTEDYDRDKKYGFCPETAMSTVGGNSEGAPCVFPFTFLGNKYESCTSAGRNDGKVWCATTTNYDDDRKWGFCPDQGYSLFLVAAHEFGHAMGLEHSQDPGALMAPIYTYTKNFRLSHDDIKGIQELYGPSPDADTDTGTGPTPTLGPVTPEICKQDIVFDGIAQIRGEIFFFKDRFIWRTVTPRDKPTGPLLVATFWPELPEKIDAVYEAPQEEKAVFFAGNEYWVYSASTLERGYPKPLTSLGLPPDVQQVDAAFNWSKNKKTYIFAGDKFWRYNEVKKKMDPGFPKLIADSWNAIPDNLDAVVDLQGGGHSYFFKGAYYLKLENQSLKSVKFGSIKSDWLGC

| MMP2 activity (gelatin zymography) (MMP2 [2]) | MMP2 activity in fibroblast cells (MMP2 [4]) | Substance | proliferation of human primary dermal fibroblast cells [1] | phagocytosis (melanosome transfer) (HaCaT keratinocytes) | phosphorylation of ERK (NIH3T3 cells) | phosphorylation of P38 (NIH3T3 cells) | collagen degradation induced by MMP2 (MMP2 [3]) |
| --- | --- | --- | --- | --- | --- | --- | --- |
| directly inhibited | inhibited | NH2-Cys-Pro-Arg-His-Phe-Asn-Pro-Val-Cys-COOH (H-CPRHFNPVC-OH; cysteine pairing not given here) [CG-Noverin] | increased depending on the treatment amount | inhibited | increased | increased | inhibited the induction of collagen degradation |
| directly inhibited | inhibited | NH2-Cys-Thr-Lys-Ile-Tyr-Asp-Pro-Val-Cys-COOH (H-CTKIYDPVC-OH; cysteine pairing not given here) [CG-Renuin] | increased depending on the treatment amount | inhibited | increased | increased | inhibited the induction of collagen degradation |
